Reference: EP1283052A1, “Pharmaceutical composition containing caspase-8 and /or caspase-9 useful for overcoming glucocorticoid- and cancer therapy-induced apoptosis of tumours” (Deutsches Krebsforschungszentrum Stiftung des öffentlichen …, priority 2001, dated 2003)

Assays:
caspase-9 = experiment: Caspase-9 expression in leukemic T cells; assay type: cell-based, human; details: cisplatin, data not shown
caspase-3 = experiment: Fluorometric caspase-3 activity assay in carcinoma cells; assay type: cell-based, human; details: P5 and P693 cells, cisplatin 2 µg/ml alone; Fig. 1c
Experimental: (§1) • (a) Human epidermoid lung cancer cells (P693) were injected into nude mice. At a tumour volume of 500 mm^3 weekly treatment with cisplatin (5mg/kg/week) was started. Cisplatin was injected intraperitoneally in the absence (CIS) or presence (DEX/CIS) of DEX which was added to the drinking water (0.28 mg/L) for the duration of the experiment. […] As controls, tumor growth of xenografts from mice which received neither cisplatin nor DEX (CO) or from mice which received DEX only (DEX) was determined. The tumour volume in each animal was measured at weekly intervals for a period of 5 weeks. Data are presented as the means +/- SD of 6 to 8 animals. • (b) The human cervical carcinoma cell lines HeLa and P5 were γ-irradiated (10 Gy) or treated with cisplatin (2 µg/ml) in the absence (white bars) or presence (black bars) of DEX (1 µM). The percentage of apoptosis was measured in untreated (CO) and stimulated cells by annexin-staining and FACS-analysis at the time points indicated. (c) P5, P693 and human leukemic T cells (CEM) cells were treated with cisplatin (2 µg/ml) in the absence or presence of DEX as indicated. 24 and 48 h following treatment cells were lysed and caspase-3 activity was determined by a fluorescent caspase-3 assay and spectroscopy.

CD95-L, TRAIL and TNF-α = experiment: Western blot of death ligand expression in P5 and CEM cells; assay type: cell-based, human; details: cisplatin alone (1-5 µg/ml), both cell types; Fig. 2a
Experimental: (§2) • (a) Left: P5 an CEM cells were treated with cisplatin (1-5 µg/ml) in the absence or presence of DEX (1 µM) as indicated. Proteins were extracted and expression of CD95-L, TRAIL or TNF-α was detected by Western blot analysis. The size of the proteins in kDa is indicated. Right: HeLa and P5 were treated with CD95 agonistic antibody αAPO-1 (CD95, 1 µg/ml), recombinant TRAIL protein (TRAIL, 100 ng/ml) or recombinant TNF-α protein (TNF-α, 100 ng/ml) in the absence (white bars) or presence (black bars) of DEX (1 µM). 24 h later the percentage of apoptosis was determined by annexin-staining and FACS-analysis in untreated (CO) and stimulated cells at the time points indicated. • (b) P693 and CEM cells were treated with cisplatin (2 µg/ml) in the absence or presence of DEX as indicated. 24 and 48 h following treatment cells were lysed and caspase-8 activity was determined by a fluorescent caspase-8 assay and spectroscopy. • (c) P5 cells were stable transfected with empty vector (pcDNA3), or pcDNA3 vector encoding dominant negative FADD protein (FADD-DN). Proteins were extracted from both cell lines and expression of wildtype (WT) and FADD-DN (DN) was detected by Western blot. Left: Stable transfected P5 cells were treated with αAPO-1 (1 µg/ml) and 24 h later apoptosis was determined by staining with annexin/propidium iodide and flow-cytometry. […]

[1] = test system: P693 lung carcinoma xenografts; experiment: P693 lung carcinoma xenografts in nude mice, tumour volume; assay type: in vivo; details: cisplatin 5mg/kg/week intraperitoneally for five weeks, absence of DEX; Fig. 1a
Experimental: as §1

caspase-8 = experiment: Fluorometric caspase-8 activity assay in P693 cells; assay type: cell-based, human; details: cisplatin 2 µg/ml alone, Fig. 2b
Experimental: as §2

Compound: N.N.[Cl][Pt][Cl] [cisplatin]
- expression of caspase-9 (caspase-9): neither induced
- caspase-3 activity (caspase-3): induced 48 h following cisplatin
- expression of DILs such as CD95-L, TRAIL and TNF-α (CD95-L, TRAIL and TNF-α): enhanced expression
- tumour growth [1]: profound reduction of tumour growth
- activity of caspase-8 (caspase-8): induced 48 h following treatment
